{"source": "patent US9272016B2", "about": "“Methods to enhance RNAi oligonucleotide delivery to respiratory epithelial cells” (University of Iowa Research Foundation, priority 2012, dated 2016)", "type_in_all_cases": "cell-based", "key": {"HPRT mRNA [1]": {"system": "HPRT mRNA", "assay": "Pretreatment of well differentiated pig airway epithelia before HPRT siRNA transfection, qPCR", "conditions": "for silencing of HPRT mRNA after pretreatment: well differentiated PAE, KGF 50 ng/ml 24 h, EGTA 6 mM 30 m, LLnL 40 μM 24 hrs, then 250 nM HPRT siRNA with RNAiMAX or Transductin; for reduction in HPRT mRNA levels: 6 h drug pretreatment at Cmap or literature concentration, then siRNA-Transductin 24 h (data not shown)", "procedure": "(§1) For airway epithelia that were either well or poorly differentiated, transfection was done mostly according to the manufacturer's protocol. In all cases, the apical surface of epithelia was washed twice with PBS before adding the transfection mixture to the apical surface. The mixture was then left on the cells for 24 h for all transfection reagents. For PK1 cells, reverse transfection was performed in a 48-well plate by first adding the siRNA-RNAiMAX reagent mixture onto the plate and then adding the dispersed cells (40,000 cells) on top of the mixture and allowing the cells to adhere and establish growth for 24 h. Before some transfections, pretreatment of cells with various chemicals were performed: Keratinocyte Growth Factor (KGF; Prospec, East Brunswick, N.J.) 50 ng/ml added both apically and basolaterally for 24 h; EGTA 6 mM added apically for 30 m; N-Acetyl-L-Leucyl-L-Leucyl-L-Norleucinal (LLnL; ICN Biochemicals, Inc, Costa Mesa, Calif.) 40 μM added both apically and basolaterally for 24 hrs; human Epidermal Growth Factor (EGF; Sigma-Aldrich, St. Louis, Mo.) 100 μg/ml, added apically for 15 m.\n(§2) Total RNA was isolated using SV96 RNA isolation kit (Promega), according to manufacturer's protocol. Two hundred fifty ng of total RNA were reverse transcribed using oligo (dT) (Roche, Indianapolis, Ind.) and random hexamers (Invitrogen, Grand Island, N.Y.) and Superscript II (Invitrogen, Grand Island, N.Y.) according to manufacturer's instructions. One-fifteenth of the cDNA was then amplified and analyzed by Taqman assay in the 7900 Real Time PCR System (Applied Biosystems) using synthesized primer-probe pairs (IDT, Coralville, Iowa), reaction buffer and Immolase DNA polymerase (Bioline, Taunton, Mass.). The reaction mix was contained in a total volume of 10 μl and the reaction condition was an initial cycle of 95° C. for 10 min, then 40 cycles of 95° C. for 15 s and 60° C. for 1 min. All data were normalized to the internal standard, RPL4 mRNA for pig airway samples and SFRS9 mRNA for human airway samples. Absolute quantification of an mRNA target sequence within an unknown sample was determined by reference to a standard curve. The standard curve was based on the real-time PCR amplification of standard amounts of the specific gene in a control NC1 cDNA.\n(§3) Wortmannin was purchased from Sigma (St. Louis, Mo.) as a ready to use solution. […] Monensin was purchased from Sigma (St. Louis, Mo.) and was dissolved in water. For experiments with drugs, the cells were pre-treated with drugs for 6 h usually at a concentration that was used in the Cmap study (Lamb J et al., The connectivity map: Using gene-expression signatures to connect small molecules, genes, and disease. Science 2006; 313(5795):1929-1935) or in other published studies. After the drug treatment, the cells were transfected with siRNA as described before."}, "HPRT mRNA [2]": {"system": "HPRT mRNA", "assay": "Pretreatment of well-differentiated human airway epithelia before HPRT siRNA transfection, qPCR", "conditions": "for reduction in HPRT mRNA levels: 6 h drug pretreatment at Cmap or literature concentration, then siRNA-Transductin 24 h (data not shown); for decrease in HPRT mRNA levels: vs nontargeting controls (FIG. 5c)", "procedure": "as §1, §2, §3"}, "human airway epithelia": {"system": "human airway epithelia", "assay": "Confocal imaging of DIG-labeled siRNA uptake in human airway epithelia", "conditions": "cells transfected with DIG-siRNA, fluorescent images, species not stated (data not shown)", "procedure": "The primary human airway epithelia grown at air-liquid interface were transfected with the DIG-labeled siRNA at a concentration of 250 ng/ml after complexing with Transductin. The transfection mixture was left on the apical surface for 2 h. At the end of this period, the cells were fixed in 2% formaldehyde, permeabilized in 0.2% Triton-x-100 and blocked in 1% BSA for 1 h. The cells were then stained with mouse antibody to DIG (Roche Biochemicals) for 1 h followed by either Alexa 488 labeled goat anti-mouse secondary antibody for 1 h followed by Alexa 488 labeled rabbit […] antibody (Invitrogen) for 1 or in some cases with Alexa 564 goat anti-mouse secondary antibody for 1 h. The cells were finally stained with nuclear stain, ToPro 3 for 10 minutes. The filter, containing the cells, was removed from the culture insert by cutting the edges with razor blade and then mounted onto a slide by the use of Vectashield. The slide was visualized by confocal microscopy."}, "SIN3A": {"system": "SIN3A", "assay": "LY-294002 pretreatment of human airway cells before SIN3A siRNA transfection, qPCR", "set-up": "dose or concentration left out as unconfirmed", "conditions": "siRNA with Transductin, 24 h, vs nontargeting control (FIG. 12a)", "procedure": "(§4) For airway epithelia that were either well or poorly differentiated, transfection was done mostly according to the manufacturer's protocol. In all cases, the apical surface of epithelia was washed twice with PBS before adding the transfection mixture to the apical surface. The mixture was then left on the cells for 24 h for all transfection reagents. For PK1 cells, reverse transfection was performed in a 48-well plate by first adding the siRNA-RNAiMAX reagent mixture onto the plate and then adding the dispersed cells (40,000 cells) on top of the mixture and allowing the cells to adhere and establish growth for 24 h. […]\n(§5) Total RNA was isolated using SV96 RNA isolation kit (Promega), according to manufacturer's protocol. […] One-fifteenth of the cDNA was then amplified and analyzed by Taqman assay in the 7900 Real Time PCR System (Applied Biosystems) using synthesized primer-probe pairs (IDT, Coralville, Iowa), reaction buffer and Immolase DNA polymerase (Bioline, Taunton, Mass.). […] Absolute quantification of an mRNA target sequence within an unknown sample was determined by reference to a standard curve. […]\n(§6) Wortmannin was purchased from Sigma (St. Louis, Mo.) as a ready to use solution. […]"}, "CFTR": {"system": "CFTR", "assay": "LY-294002 pretreatment of human airway cells before CFTR siRNA transfection, qPCR", "set-up": "dose or concentration left out as unconfirmed", "conditions": "siRNA with Transductin, 24 h, vs nontargeting control (FIG. 12b)", "procedure": "as §4, §5, §6"}, "IL-8": {"system": "IL-8", "assay": "IL-8 siRNA transfection of poorly differentiated pig airway epithelia (2 and 5 days old), qPCR", "conditions": "for silencing of IL-8: 250 ng siRNA with Transductin, 24 h (FIG. 11a); for knockdown of IL-8: poorly differentiated pig airway cultures, siRNA 250 ng, 24 h (FIG. 9a)", "procedure": "as §1\nas §2, with “cDNA. PCR efficiency for all reactions was within the acceptable margin of 90-110%. All the results of the samples were presented as remaining mRNA level in comparison to the mRNA level in the control samples (NC1), which was normalized to 100%.” for “cDNA.”"}, "pig HPRT": {"system": "pig HPRT", "assay": "Dicer-substrate siRNA silencing in PK1 cells, qPCR of HPRT mRNA", "conditions": "reverse transfection with RNAiMAX, 1 nM and 10 nM siRNA, 24 h, vs nontargeting control NC1", "procedure": "as §4, §5\nsiRNAs were designed and synthesized to specifically target pig HPRT (ssHPRT) and IL-8 (IL-8 1098 and IL-8 1466). […] Quantitative real-time PCR was performed to measure the extent of mRNA reduction. […]"}}, "note": "Where a SMILES comes first, the peptide text is derived from it. [ ]: non-standard residue; d: D form. Nle = CCCC[C@H](N)C(=O)O; d = 2'-deoxy (DNA); r = 2'-OH (RNA); {P} = phosphate"}
{"molecule": "O=C(O)CN(CCOCCOCCN(CC(=O)O)CC(=O)O)CC(=O)O", "note": "[EGTA]", "values": [{"measurement": "silencing of HPRT mRNA after pretreatment", "setting": "HPRT mRNA [1]", "value": "did not result in silencing"}]}
{"molecule": "CCCC[C@@H](C=O)NC(=O)[C@H](CC(C)C)NC(=O)[C@H](CC(C)C)NC(C)=O", "note": "[LLnL, N-Acetyl-L-Leucyl-L-Leucyl-L-Norleucinal] (Ac-Leu-Leu-[Nle]-aldehyde)", "values": [{"measurement": "silencing of HPRT mRNA after pretreatment", "setting": "HPRT mRNA [1]", "value": "no effect on silencing"}]}
{"molecule": "O=c1cc(N2CCOCC2)oc2c(-c3ccccc3)cccc12", "note": "[LY-294002, 2-morpholin-4-yl-8-phenylchromen-4-one]", "values": [{"measurement": "range of silencing effects (inhibition)", "setting": "HPRT mRNA [2]; human airway cells, several donors (data not shown)", "value": "10-55%"}, {"measurement": "silencing of HPRT", "setting": "HPRT mRNA [2]; human epithelia, 10 μM for 6 h apically, vs nontargeting control (FIG. 5a)", "value": "about 40%"}, {"measurement": "siRNA uptake", "setting": "human airway epithelia", "value": "improved siRNA uptake"}, {"measurement": "reduction in mRNA levels of SIN3A", "setting": "SIN3A", "value": 25, "unit": "%"}, {"measurement": "range of silencing effects (inhibition)", "setting": "HPRT mRNA [1]; pig airway cells, several donors (data not shown)", "value": "10-20%"}, {"measurement": "silencing of HPRT", "setting": "HPRT mRNA [1]; pig epithelia, 10 μM for 6 h apically, vs nontargeting control (FIG. 5b)", "value": "about 20%"}, {"measurement": "reduction in mRNA levels of CFTR", "setting": "CFTR", "value": 20, "unit": "%"}]}
{"molecule": "C=C1CC[C@H](O)C/C1=C/C=C1\\CCC[C@]2(C)[C@@H]([C@H](C)/C=C/[C@H](C)C(C)C)CC[C@@H]12", "note": "[ergocalciferol]", "values": [{"measurement": "reduction in HPRT mRNA levels", "setting": "HPRT mRNA [2]; human epithelia", "value": "no reduction"}, {"measurement": "reduction in HPRT mRNA levels", "setting": "HPRT mRNA [1]; pig epithelia", "value": "no reduction"}]}
{"molecule": "O=S(=O)(c1cccc2cnccc12)N1CCCNCC1", "note": "[fasudil]", "values": [{"measurement": "reduction in HPRT mRNA levels", "setting": "HPRT mRNA [2]; human epithelia", "value": "no reduction"}, {"measurement": "reduction in HPRT mRNA levels", "setting": "HPRT mRNA [1]; pig epithelia", "value": "no reduction"}]}
{"molecule": "O=C1CC[C@@]2(O)[C@H]3Cc4ccc(O)c5c4[C@@]2(CCN3CC2CC2)[C@H]1O5", "note": "[naltrexone]", "values": [{"measurement": "reduction in HPRT mRNA levels", "setting": "HPRT mRNA [2]; human epithelia", "value": "no reduction"}, {"measurement": "reduction in HPRT mRNA levels", "setting": "HPRT mRNA [1]; pig epithelia", "value": "no reduction"}]}
{"molecule": "CC(=O)O[C@H]1C(=O)[C@@]2(C)[C@H]([C@H](OC(=O)c3ccccc3)[C@]3(O)C[C@H](OC(=O)[C@H](O)[C@@H](NC(=O)c4ccccc4)c4ccccc4)C(C)=C1C3(C)C)[C@]1(OC(C)=O)CO[C@@H]1C[C@@H]2O", "note": "[paclitaxel]", "values": [{"measurement": "reduction in HPRT mRNA levels", "setting": "HPRT mRNA [2]; human epithelia", "value": "no reduction"}, {"measurement": "reduction in HPRT mRNA levels", "setting": "HPRT mRNA [1]; pig epithelia", "value": "no reduction"}]}
{"molecule": "COC[C@H]1OC(=O)c2coc3c2[C@@]1(C)C1=C(C3=O)[C@@H]2CCC(=O)[C@@]2(C)C[C@H]1OC(C)=O", "note": "[wortmannin]", "values": [{"measurement": "decrease in HPRT mRNA levels", "setting": "HPRT mRNA [2]; human airway cells, 10 nM pretreatment", "value": "about 20%"}, {"measurement": "decrease in HPRT mRNA levels", "setting": "HPRT mRNA [2]; human airway cells, 40 nM pretreatment", "value": "~30", "unit": "%"}]}
{"molecule": "IL-8 1098: Dicer-substrate siRNA against pig IL-8, SEQ ID NO: 5 and 6 (chain 1 GGCAAAUUGUUAAACGAACAGAATA; chain 2 UAUUCUGUUCGUUUAACAAUUUGCCAA; chain 1: sugars from the 5' end r23 d2, 5' {P}, backbone not given here; chain 2: RNA, backbone not given here)", "values": [{"measurement": "silencing of IL-8", "setting": "IL-8; 2-day old pig airway epithelia", "value": "Silencing of IL-8 is seen"}, {"measurement": "silencing of IL-8", "setting": "IL-8; 5-day old pig airway epithelia", "value": "not in 5-day old epithelia"}, {"measurement": "knockdown of IL-8", "setting": "IL-8", "value": "Knockdown of IL-8 is seen"}]}
{"molecule": "IL-8 1466: Dicer-substrate siRNA against pig IL-8, SEQ ID NO: 7 and 8 (chain 1 UGAGUGUAACUAUAGAACAUUUACA; chain 2 UGUAAAUGUUCUAUAGUUACACUCACA; chain 1: sugars from the 5' end r23 d2, 5' {P}, backbone not given here; chain 2: RNA, backbone not given here)", "values": [{"measurement": "silencing of IL-8", "setting": "IL-8; 2-day old pig airway epithelia", "value": "Silencing of IL-8 is seen"}, {"measurement": "silencing of IL-8", "setting": "IL-8; 5-day old pig airway epithelia", "value": "not in 5-day old epithelia"}, {"measurement": "knockdown of IL-8", "setting": "IL-8", "value": "Knockdown of IL-8 is seen"}]}
{"molecule": "ssHPRT: Dicer-substrate siRNA against pig HPRT, SEQ ID NO: 1 and 2 (chain 1 CCAGUAAAGUUAUCACAUGUUCUAG; chain 2 CUAGAACAUGUGAUAACUUUACUGNGG; chemistry not fully specified)", "values": [{"measurement": "decrease of targeting mRNA (HPRT)", "setting": "pig HPRT", "value": "more than 90%"}]}
